Reference: PMC11845477, “Exploring the principles behind antibiotics with limited resistance” (Nature Communications, 2025)
Several values for one entry are separate records, joined by “and”; a condition that tells them apart may be missing. Identical values can stand only once. Like-named read-outs stand apart in the source and are kept apart here. Where a SMILES comes first, the peptide text is derived from it. Bridges are numbered along the chain shown (N, C = ends). [ ]: non-standard residue; d: D form. The star is where a group is joined. X1 = NC[C@@H](CC(=O)*)c1cccc(Cl)c1; X2 = CC[C@H](C)CCCCC(=O)*; Dab = NCC[C@H](N)C(=O)O; Dap = NC[C@H](N)C(=O)O

What was measured:
K. pneumoniae = type: cell-based, Klebsiella pneumoniae
Experimental: (§1) We employed image analysis to quantify bacterial survival under fixed antibiotic concentrations (10xMIC for 4 hours) on E. coli, A. baumannii, K. pneumoniae, and P. aeruginosa. […] Survival rate was quantified by calculating the ratio of the viable cells after antibiotic treatment and the total initial viable cell count.
(§2) Fig. 9 Killing kinetics of the studied antibiotics. a Bacterial survival rate in response to toxic antibiotic exposure. […] The bars indicate the survival rate (log10) compared to the untreated initial viable cell count (see “Methods”). Data are presented as mean values of 5 biological replicates ± SEM. The antibiotic group differentiation is denoted by color. […] Survival was estimated by measuring cell viability (colony-forming units/ml) of 2 biologically independent strains following a 4-hour exposure to different concentrations of 16 antibiotics on E. coli ATCC25922 (for further details, see “Methods”). The antibiotic concentration that kills 99.9% of the E. coli population is indicated as a vertical dotted line (see Supplementary Data 5). Error bars represent standard error calculated from the colony counts by Poisson’s model. A Hill function was fitted to the dose-response data from two biological replicates, producing sigmoidal curves (Supplementary Data 5). The Hill coefficient reflects how steeply the survival rate decreases in response to increasing antibiotic concentration ([…]). […] X-axis label colors indicate mode of action groups. For detailed information on antibiotic and bacterial species, see Supplementary Data 1. Source data are provided as a Source Data file.
(§3) In this current study, the killing kinetics of each antibiotic was measured according to a previously established experimental protocol[62] with minor modifications. During this assay, the bacterial cultures were exposed to antibiotics in 96-well assay plates and their viability after 4 hours of exposure was quantified by two methods: i) microplating and colony counting or ii) fluorescent staining of cells and counting of the fluorescent units.
(§4) Specifically, these experiments were performed in the following steps: (1) Preparation of bacterial stocks. Single colonies from each strain were isolated and grown overnight in MHB medium at 37 °C, 160 rpm. In case of the fluorescently tagged E. coli strains, the medium was supplemented with 10 μg/mL chloramphenicol, to maintain the pZS2R plasmid. Overnight cultures were diluted 1:5000 and grown to an optical density at 600 nm (OD600) of 0.25. These cultures were concentrated by centrifugation and small aliquots of 50 μL containing ~2.2 × 10^9 cells were frozen in glycerol (stored at −80 °C). (2) Preparing assay plates with antibiotics. 96-well plates were filled with 235 μL MHB and supplemented with antibiotics using an automated digital dispenser (D300e, Tecan). In the case of SCH79797, we used minimal media. […] For testing the clearance efficacy of each antibiotic at a single lethal dose, the 10x of the MIC for each antibiotic-strain pair were prepared in at least three replicates. (3) Antibiotic exposure. During the dose response assay, frozen cultures of the E. coli strains expressing YFP and mCherry were thawed and mixed at a 1:1 ratio, diluted 1:1000 in 30 mL MHB and incubated for 45 min at 37 °C and 160 rpm. During the single-dose assay, the frozen cultures of experimental strains (E. coli, K. pneumoniae, A. baumannii) were also thawed and diluted 1:1000 in 30 mL MHB and incubated at 37 °C to reach an OD of 0.25 and 160 rpm. Following this incubation phase, these bacterial cultures were then aliquoted into the 96-well deep-well antibiotic plates (15 μL culture; total volume of 250 μL) at an inoculum density of about 10^7 CFU.

P. aeruginosa = type: cell-based, Pseudomonas aeruginosa
Experimental: as §1, §2, §3, §4

E. coli ATCC25922 = test: Dose-response killing curves (99.9% killing concentration, Hill coefficient); type: cell-based, Escherichia coli; conditions: dose-response killing curve; for 99.9% killing (10^-3): unit not given
From the text: as §2
To test the dose range under which resistance can evolve, we employed advanced microplating and automated image analysis. We quantified bacterial population survival at varying antibiotic concentrations[62] (see “Methods”) in E. coli. Briefly, we generated dose-response curves and investigated how steeply the killing effect increases as the antibiotic concentration rises. In specific, the Hill coefficient representing each bacterial strain-antibiotic combination was calculated to quantify dose-kill kinetics.
as §3
as §4, with “rpm.” for “rpm. Following this incubation phase, these bacterial cultures were then aliquoted into the 96-well deep-well antibiotic plates (15 μL culture; total volume of 250 μL) at an inoculum density of about 10^7 CFU.”

[1] = Klebsiella pneumoniae, survival at 10xMIC for 4 hours, single replicates, (fig 9a source data)

Compound: CN[C@@H]1[C@@H](O[C@H]2O[C@H](CO)[C@@H](N)[C@H](O)[C@H]2O)OC2C[C@@H](N)[C@@H](O[C@H]3[C@H](O)[C@@H](O)[C@H](N)C[C@@H]3N)OC2[C@@H]1O (stereo partly shown) [Apramycin]
- Survival rate (log10) (K. pneumoniae; Klebsiella pneumoniae, survival at 10xMIC for 4 hours, single replicates, (fig 9a source data), listed as APR): -1.19 log10 and -1.1 log10 and -1.062 log10 and -0.9595 log10 and -0.945 log10

Compound: Nc1nc(-n2cc(C(=O)O)c(=O)c3cc(F)c(N4CC(O)C4)c(Cl)c32)c(F)cc1F [Delafloxacin]
- Survival rate (log10) (P. aeruginosa; Pseudomonas aeruginosa, survival at 10xMIC for 4 hours, single replicates, (fig 9a source data), listed as DEL): -0.244 log10 and -0.1736 log10 and -0.08683 log10 and -0.3488 log10 and -0.1122 log10
- Survival rate (log10) (K. pneumoniae; Klebsiella pneumoniae, survival at 10xMIC for 4 hours, single replicates, (fig 9a source data), listed as DEL): -0.7389 log10 and -0.7966 log10 and -0.7399 log10 and -1.048 log10 and -0.8397 log10

Compound: CN(C)[C@@H]1C(O)=C(C(N)=O)C(=O)[C@@]2(O)C(O)=C3C(=O)c4c(O)c(NC(=O)CN5CCCC5)cc(F)c4C[C@H]3C[C@@H]12 [Eravacycline]
- Survival rate (log10) (P. aeruginosa; Pseudomonas aeruginosa, survival at 10xMIC for 4 hours, single replicates, (fig 9a source data), listed as ERA): -0.509 log10 and -0.5518 log10 and -0.8039 log10 and -0.6612 log10 and -0.7582 log10
- Survival rate (log10) (K. pneumoniae; Klebsiella pneumoniae, survival at 10xMIC for 4 hours, single replicates, (fig 9a source data), listed as ERA): -0.6401 log10 and -0.9022 log10 and -0.9087 log10 and -0.8384 log10 and -0.7454 log10

Compound: CNC(C)C1CCC(N)C(OC2C(N)CC(N)C(OC3OCC(C)(O)C(NC)C3O)C2O)O1 (stereo not shown) [Gentamicin]
- Survival rate (log10) (P. aeruginosa; Pseudomonas aeruginosa, survival at 10xMIC for 4 hours, single replicates, (fig 9a source data), listed as GEN): -0.02375 log10 and -0.1205 log10 and -0.1516 log10 and -0.09697 log10 and -0.6642 log10
- Survival rate (log10) (K. pneumoniae; Klebsiella pneumoniae, survival at 10xMIC for 4 hours, single replicates, (fig 9a source data), listed as GEN): -0.9685 log10 and -0.989 log10 and -1.08 log10 and -0.8281 log10 and -1.091 log10

Compound: CC[C@H](C)CCCCC(=O)N[C@@H](CCN)C(=O)N[C@H](C(=O)N[C@@H](CCN)C(=O)N[C@H]1CCNC(=O)[C@H]([C@@H](C)O)NC(=O)[C@H](CCN)NC(=O)[C@H](CCN)NC(=O)[C@H](CC(C)C)NC(=O)[C@@H](Cc2ccccc2)NC(=O)[C@H](CCN)NC1=O)[C@@H](C)O [Polymyxin B] (X2-[Dab]T[Dab][Dab][Dab][dF]L[Dab][Dab]T; lactam 4-C (inferred); N-terminus assumed)
- Survival rate (log10) (P. aeruginosa; Pseudomonas aeruginosa, survival at 10xMIC for 4 hours, single replicates, (fig 9a source data), listed as PMB): -6 log10 and -3.379 log10
- Steepness (Hill Coefficient) (E. coli ATCC25922): 46.82
- 99.9% killing (10^-3) (E. coli ATCC25922): 1.08
- Survival rate (log10) (K. pneumoniae; Klebsiella pneumoniae, survival at 10xMIC for 4 hours, single replicates, (fig 9a source data), listed as PMB): -3.309 log10 and -3.392 log10 and -3.139 log10 and -2.914 log10 and -3.825 log10

Compound: CC(C)c1ccc(Cn2ccc3c4c(N)nc(NC5CC5)nc4ccc32)cc1 [SCH79797]
- Steepness (Hill Coefficient) (E. coli ATCC25922): 16.39
- 99.9% killing (10^-3) (E. coli ATCC25922): 4.31
- bacterial survival after toxic antibiotic exposure (K. pneumoniae; 10xMIC for 4 hours): eliminated the entire bacterial population
- Survival rate (log10) (K. pneumoniae; [1]): -6 log10

Compound: CC(C)C[C@@H]1NC(=O)[C@@H](Cc2ccccc2)NC(=O)[C@H](CCN)NC(=O)[C@@H](NC(=O)[C@H](CN)NC(=O)[C@@H](NC(=O)C[C@H](CN)c2cccc(Cl)c2)[C@@H](C)O)CCNC(=O)[C@H]([C@@H](C)O)NC(=O)[C@H](CCN)NC(=O)[C@H](CCN)NC1=O [SPR206] (X1-T[Dap][Dab][Dab][dF]L[Dab][Dab]T; lactam 3-C (inferred); N-terminus assumed)
- Survival rate (log10) (P. aeruginosa; Pseudomonas aeruginosa, survival at 10xMIC for 4 hours, single replicates, (fig 9a source data), listed as SPR): -6 log10 and -2.301 log10 and -2.534 log10 and -2.682 log10
- Steepness (Hill Coefficient) (E. coli ATCC25922): 59.45
- 99.9% killing (10^-3) (E. coli ATCC25922): 0.18
- Survival rate (log10) (K. pneumoniae; Klebsiella pneumoniae, survival at 10xMIC for 4 hours, single replicates, (fig 9a source data), listed as SPR): -4.671 log10 and -4.37 log10 and -3.671 log10

Compound: C[C@@H](O)[C@H]1C(=O)N2C(C(=O)O)=C(S[C@H]3CC[S@@+]([O-])C3)S[C@H]12 [Sulopenem]
- Steepness (Hill Coefficient) (E. coli ATCC25922): 1.03
- 99.9% killing (10^-3) (E. coli ATCC25922): 0.18
- Survival rate (log10) (K. pneumoniae; Klebsiella pneumoniae, survival at 10xMIC for 4 hours, single replicates, (fig 9a source data), listed as SUO): -0.7658 log10 and -1.06 log10 and -0.9043 log10 and -0.6919 log10 and -1.504 log10

Compound: POL7306
- Survival rate (log10) (P. aeruginosa): -6 log10
- Survival rate (log10) (P. aeruginosa; Pseudomonas aeruginosa, survival at 10xMIC for 4 hours, single replicates, (fig 9a source data), listed as POL): -2.602 log10 and -2.902 log10 and -2.057 log10
- Steepness (Hill Coefficient) (E. coli ATCC25922): 43.61
- 99.9% killing (10^-3) (E. coli ATCC25922): 2.31
- Survival rate (log10) (K. pneumoniae): -3.973 log10 and -4.193 log10
- Survival rate (log10) (K. pneumoniae; [1]): -4.671 log10

Compound: Tridecaptin M152-P3
- Steepness (Hill Coefficient) (E. coli ATCC25922): 18.9
- 99.9% killing (10^-3) (E. coli ATCC25922): 4.73
- Survival rate (log10) (K. pneumoniae; Klebsiella pneumoniae, survival at 10xMIC for 4 hours, single replicates, (fig 9a source data), listed as TRD): -2.838 log10 and -3.629 log10 and -3.392 log10 and -4.671 log10

Compound: colistin
- bacterial survival after toxic antibiotic exposure (P. aeruginosa; 10xMIC for 4 hours): eliminate the full bacterial population
- Survival rate (log10) (P. aeruginosa; Pseudomonas aeruginosa, survival at 10xMIC for 4 hours, single replicates, (fig 9a source data)): -6 log10
- Survival rate (log10) (K. pneumoniae; Klebsiella pneumoniae, survival at 10xMIC for 4 hours, single replicates, (fig 9a source data), listed as COL): -3.893 log10 and -3.973 log10 and -4.193 log10 and -4.37 log10
